The test concerns the target T1, Full-length USP19 (Homo sapiens, UniProt O94966).
T1 construct: Full-length USP19 was purchased from Boston Biochem (E-576); purchased Boston Biochem E-576
T1 sequence (O94966 1-1318): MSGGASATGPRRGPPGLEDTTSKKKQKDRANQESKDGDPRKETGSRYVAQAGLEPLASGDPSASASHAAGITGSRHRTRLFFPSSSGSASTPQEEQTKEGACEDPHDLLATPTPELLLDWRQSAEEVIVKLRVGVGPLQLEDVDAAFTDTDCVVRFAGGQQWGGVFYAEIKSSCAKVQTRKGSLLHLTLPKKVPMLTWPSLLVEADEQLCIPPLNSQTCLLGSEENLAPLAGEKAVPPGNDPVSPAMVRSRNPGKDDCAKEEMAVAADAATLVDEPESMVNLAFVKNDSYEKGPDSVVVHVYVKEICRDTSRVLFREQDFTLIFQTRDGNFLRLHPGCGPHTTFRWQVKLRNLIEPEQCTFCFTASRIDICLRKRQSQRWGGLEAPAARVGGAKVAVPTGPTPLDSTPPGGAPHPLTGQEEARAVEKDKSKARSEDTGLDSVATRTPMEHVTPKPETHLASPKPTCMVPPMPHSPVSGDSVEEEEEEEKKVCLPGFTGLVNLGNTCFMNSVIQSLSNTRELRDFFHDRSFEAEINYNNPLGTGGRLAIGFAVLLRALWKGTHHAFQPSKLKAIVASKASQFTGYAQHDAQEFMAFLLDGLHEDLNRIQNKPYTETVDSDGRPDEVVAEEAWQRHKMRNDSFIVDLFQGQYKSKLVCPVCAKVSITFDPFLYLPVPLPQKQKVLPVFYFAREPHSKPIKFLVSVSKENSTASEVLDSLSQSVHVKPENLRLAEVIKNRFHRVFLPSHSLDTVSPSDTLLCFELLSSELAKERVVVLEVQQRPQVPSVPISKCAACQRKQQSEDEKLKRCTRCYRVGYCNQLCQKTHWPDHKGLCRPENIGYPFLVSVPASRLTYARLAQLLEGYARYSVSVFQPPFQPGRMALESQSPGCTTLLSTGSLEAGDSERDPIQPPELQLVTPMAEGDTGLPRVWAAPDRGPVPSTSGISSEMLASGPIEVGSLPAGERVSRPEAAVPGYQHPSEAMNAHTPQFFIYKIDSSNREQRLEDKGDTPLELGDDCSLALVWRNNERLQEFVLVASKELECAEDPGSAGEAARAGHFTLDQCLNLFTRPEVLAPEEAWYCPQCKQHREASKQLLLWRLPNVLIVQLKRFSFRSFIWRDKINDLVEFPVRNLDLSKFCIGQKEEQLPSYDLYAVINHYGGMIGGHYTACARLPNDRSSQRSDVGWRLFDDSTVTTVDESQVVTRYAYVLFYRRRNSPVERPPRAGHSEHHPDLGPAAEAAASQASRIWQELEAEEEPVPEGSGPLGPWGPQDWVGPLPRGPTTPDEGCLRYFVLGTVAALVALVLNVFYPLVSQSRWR
In words: USP19 fluorescence polarisation (FP) homogeneous assay with Ubiquitin-Lys-TAMRA substrate. Particulars: 2.5 nM USP19, 30 min pre-incubation, average of at least two duplicate experiments. In kind it is biochemical. Put shortly: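 Full-length USP19 preincubated 30 min at RT with inhibitor (200 μM to 2 μM series, 8–18 points) before adding 500 nM Ubiquitin-Lys-TAMRA substrate.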
Background: Fluorescence polarisation rises when a labelled molecule tumbles more slowly, as on binding a larger partner.

Data on 21 molecules can be found in patent US20220033397A1, “PHARMACEUTICAL COMPOUNDS AND THEIR USE AS INHIBITORS OF UBIQUITIN SPECIFIC PROTEASE 19 (USP19)” (ALMAC DISCOVERY LIMITED, priority 2018, published 2022).

Where only a bound is given, the exact number is not on record here.

`C[C@H](CC1CCCCC1)C(=O)N1CCC(O)(Cn2cc(C3CC3)ncc2=O)C(C)(C)C1` (stereo partly drawn) [Example 22, 1-((1-((R)-3-Cyclohexyl-2-methylpropanoyl)-4-hydroxy-3,3-dimethylpiperidin-4-yl)methyl)-5-cyclopropylpyrazin-2(1H)-one]: the IC50 is 0.5 to 5 µM.
As for `C[C@H](CC(F)(F)F)C(=O)N1CCC(O)(Cn2cnc3c(cnn3Cc3ccccc3)c2=O)C2(CCCC2)C1` (stereo partly drawn) [Example 168, 1-Benzyl-5-((10-hydroxy-7-((R)-4,4,4-trifluoro-2-methylbutanoyl)-7-azaspiro[4.5]decan-10-yl)methyl)-1,5-dihydro-4H-pyrazolo[3,4-d]pyrimidin-4-one], the figure is 5 to 50 µM; as for `O=C(N1CC[C@@](O)(Cn2cnc(C3CC3)cc2=O)C2(CCCC2)C1)N1CCNC[C@H]1c1cc(F)ccc1F` [Example 378, 6-Cyclopropyl-3-(((S)-7-((R)-2-(2,5-difluorophenyl)piper-azine-1-carbonyl)-10-hydroxy-7-aza-spiro[4.5]decan-10-yl)methyl)pyrimidin-4(3H)-one], under 0.5 µM.
As to `O=C(N1CCC(O)(Cn2cnc(-c3ccccc3)cc2=O)C2(CCC2)C1)N1CCOC[C@H]1c1ccccc1` (stereo partly drawn) [Example 305, 3-((9-Hydroxy-6-((R)-3-phenylmorpholine-4-carbonyl)-6-azaspiro[3.5]nonan-9-yl)methyl)-6-phenylpyrimidin-4(3H)-one], the IC50 is under 0.5 µM.
`CN(C)C(=O)c1cn(CC2(O)CCN(C(=O)Oc3ccc([N+](=O)[O-])cc3)CC23CCCC3)c(=O)cc1-c1ccccc1` (stereo not drawn) [Example 83, 4-Nitrophenyl 10-((5-(dimethylcarbamoyl)-2-oxo-4-phenylpyridin-1(2H)-yl)methyl)-10-hydroxy-7-azaspiro[4.5]decane-7-carboxylate]: the IC50 was in the range of 50 to 250 µM.
Take `N[C@@H]1CCN(C(=O)N2CC[C@@](O)(Cn3cnc(-c4ccccc4)cc3=O)C3(CCCC3)C2)[C@H](c2ccccc2)C1` [Example 397, 3-(((S)-7-((2S,4R)-4-Amino-2-phenyl-piperidine-1-carbo-nyl)-10-hydroxy-7-azaspiro[4.5]decan-10-yl)methyl)-6-phenylpyrimidin-4(3H)-one]: the IC50 is under 0.5 µM.
Regarding `C[C@H](CC1CCCCC1)C(=O)N1CCC(O)(Cn2ccc3occc3c2=O)C2(CCCC2)C1` (stereo partly drawn) [Example 138, 5-((7-((R)-3-Cyclohexyl-2-methylpropanoyl)-10-hydroxy-7-azaspiro[4.5]decan-10-yl)methyl)furo[3,2-c]pyridin-4(5H)-one], the IC50 is 5 to 50 µM.
Then `C[C@H](CC(F)(F)F)C(=O)N1CCC(O)(Cn2cnc3cc(Cl)ccc3c2=O)C2(CCCC2)C1` (stereo partly drawn) [Example 134, 7-Chloro-3-((10-hydroxy-7-((R)-4,4,4-trifluoro-2-methylbutanoyl)-7-azaspiro[4.5]decan-10-yl)methyl)quinazolin-4(3H)-one], with 5 to 50 µM; and `C[C@@H]1CN(CC2(O)CCN(C(=O)[C@H](C)CC(F)(F)F)CC23CCCC3)C(=O)CO1` (stereo partly drawn) [Example 94, (6R)-4-((10-Hydroxy-7-((R)-4,4,4-trifluoro-2-methylbutanoyl)-7-azaspiro[4.5]decan-10-yl)methyl)-6-methylmorpholin-3-one], with 50 to 250 µM; and `COc1ccc2ccn(CC3(O)CCN(C(=O)[C@H](C)CC(F)(F)F)CC34CCCC4)c(=O)c2c1` (stereo partly drawn) [Example 122, 2-((10-Hydroxy-7-((R)-4,4,4-trifluoro-2-methylbutanoyl)-7-azaspiro[4.5]decan-10-yl)methyl)-7-methoxyisoquinolin-1(2H)-one], with 50 to 250 µM.
For the molecule `O=C(N1CCC(O)(Cn2cnc3ccc(F)cc3c2=O)C2(CCCC2)C1)N1CCOC[C@H]1c1ccccc1` (stereo partly drawn) [Example 164, 6-Fluoro-3-((10-Hydroxy-7-((R)-3-phenylmorpholine-4-carbonyl)-7-azaspiro[4.5]decan-10-yl)methyl)quinazolin-4(3H)-one], the IC50 was under 0.5 µM.
Consider `CC1(C)CN(C(=O)N2CCOC[C@H]2c2ccccc2)CC[C@@]1(O)Cn1cnc(-c2ccccc2)cc1=O` [Example 310, 3-(((S)-4-Hydroxy-3,3-dimethyl-1-((R)-3-phenylmorpholine-4-carbonyl)piperidin-4-yl)methyl)-6-phenylpyrimidin-4(3H)-one], for which the IC50 was under 0.5 µM.
As for `Cc1cc(=O)n(C[C@]2(O)CCN(C(=O)N3CCNC[C@H]3c3ccccc3)CC23CCCC3)cn1` [Example 300, 3-(((S)-10-Hydroxy-7-((R)-2-phenylpiperazine-1-carbonyl)-7-azaspiro[4.5]decan-10-yl)methyl)-6-methylpyrimidin-4(3H)-one], the IC50 was under 0.5 µM.
With `O=C(N1CC[C@@](O)(Cn2cnc(-c3ccccc3)cc2=O)C2(CCCC2)C1)N1CCNC[C@H]1c1cccc(F)c1` [Example 320, 3-(((S)-7-((R)-2-(3-Fluorophenyl)piperazine-1-carbonyl)-10-hydroxy-7-azaspiro[4.5]decan-10-yl)methyl)-6-phenylpyrimidin-4(3H)-one], the IC50 is under 0.5 µM.
As to `CN(CC1CC(F)C1)C(=O)N1CCC(O)(Cn2cnc(-c3ccccc3)cc2=O)C2(CCCC2)C1` (stereo not drawn) [Example 239, N-((3-Fluorocyclobutyl)methyl)-10-hydroxy-N-methyl-10-((6-oxo-4-phenylpyrimidin-1(6H)-yl)methyl)-7-azaspiro[4.5]decane-7-carboxamide], the IC50 was in the range of 5 to 50 µM.
As for `C[C@H](CC1CCCCC1)C(=O)N1CCC(O)(CN2CCN(C)CC2=O)C2(CCCC2)C1` (stereo partly drawn) [Example 114, 1-((7-((R)-3-Cyclohexyl-2-methylpropanoyl)-10-hydroxy-7-azaspiro[4.5]decan-10-yl)methyl)-4-methylpiperazin-2-one], the figure is 0.5 to 5 µM; as for `O=C(N1CCC(O)(Cn2cnc(-c3ccccc3)cc2=O)C2(CCC2)C1)N1CCNC[C@H]1c1ccccc1` (stereo partly drawn) [Example 306, 3-((9-Hydroxy-6-((R)-2-phenylpiperazine-1-carbonyl)-6-azaspiro[3.5]nonan-9-yl)methyl)-6-phenylpyrimidin-4(3H)-one], under 0.5 µM.
As for `C[C@H](CC1CCC1)C(=O)N1CCC(O)(Cn2ccncc2=O)C2(CCCC2)C1` (stereo partly drawn) [Example 4, 1-((7-((R)-3-Cyclobutyl-2-methylpropanoyl)-10-hydroxy-7-azaspiro[4.5]decan-10-yl)methyl) pyrazin-2(1H)-one], the IC50 lay within 0.5 to 5 µM.
On to `O=C(N1CCC(C(F)F)C1)N1CCC(O)(Cn2cnc(-c3ccccc3)cc2=O)C2(CCCC2)C1` (stereo not drawn) [Example 262, 3-((7-(3-(Difluoromethyl)pyrrolidine-1-carbonyl)-10-hydroxy-7-azaspiro[4.5]decan-10-yl)methyl)-6-phenylpyrimidin-4(3H)-one], for which the IC50 was 5 to 50 µM.
Regarding `C[C@H](CC1CCCCC1)C(=O)N1CCC(O)(Cn2cc(-c3cccnc3)ncc2=O)C(C)(C)C1` (stereo partly drawn) [Example 12, 1-((1-((R)-3-Cyclohexyl-2-methylpropanoyl)-4-hydroxy-3,3-dimethylpiperidin-4-yl)methyl)-5-(pyridin-3-yl)pyrazin-2(1H)-one], the IC50 fell in the range of 0.5 to 5 µM.
With `O=C(N1CC[C@@](O)(Cn2cnc(-c3ccc(Cl)cc3)cc2=O)C2(CCCC2)C1)N1CCNC[C@H]1c1ccccc1` [Example 349, 6-(4-Chlorophenyl)-3-(((S)-10-hydroxy-7-((R)-2-phenylpiperazine-1-carbonyl)-7-aza-spiro[4.5]decan-10-yl)methyl)pyrimidin-4(3H)-one], the IC50 was under 0.5 µM.

The IC50 is the midpoint of a concentration-inhibition curve.
